Data reported in US6737383B1, “Herbicidal oxadiazolidines” (priority 1999, dated 2004).

How the values were obtained:
[1] = test system: blackgrass; experiment: Test B pre/postemergence blackgrass; assay type: in vivo, Alopecurus myosuroides
Method in brief: (§1)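 Test chemicals in a non-phytotoxic solvent mixture with surfactant were sprayed preemergence onto planted seeds and postemergence onto plants 2 to 18 cm tall (1- to 4-leaf stage). After twelve to sixteen days in a greenhouse, injury was visually rated against untreated controls from 0 (no effect) to 10 (complete control).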

[2] = test system: cocklebur; experiment: Test B pre/postemergence cocklebur; assay type: in vivo, Xanthium strumarium
Method in brief: as §1

[3] = test system: giant foxtail; experiment: Test B pre/postemergence giant foxtail; assay type: in vivo, Setaria faberii
Method in brief: as §1

[4] = test system: morningglory; experiment: Test B pre/postemergence morningglory; assay type: in vivo, Ipomoea hederacea
Method in brief: as §1

[5] = test system: pigweed; experiment: Test B pre/postemergence pigweed; assay type: in vivo, Amaranthus retroflexus
Method in brief: as §1

[6] = test system: rape; experiment: Test B pre/postemergence rape; assay type: in vivo, Brassica napus
Method in brief: as §1

[7] = test system: soybean; experiment: Test B pre/postemergence soybean; assay type: in vivo, Glycine max
Method in brief: as §1

[8] = test system: sugar beet; experiment: Test B pre/postemergence sugar beet; assay type: in vivo, Beta vulgaris
Method in brief: as §1

[9] = test system: velvetleaf; experiment: Test B pre/postemergence velvetleaf; assay type: in vivo, Abutilon theophrasti
Method in brief: as §1

[10] = test system: wheat; experiment: Test B pre/postemergence wheat; assay type: in vivo, Triticum aestivum
Method in brief: as §1

[11] = test system: wild oat; experiment: Test B pre/postemergence wild oat; assay type: in vivo, Avena fatua
Method in brief: as §1

[12] = test system: purple nutsedge; experiment: Test B pre/postemergence purple nutsedge; assay type: in vivo, Cyperus rotundus
Method in brief: as §1

[13] = test system: rice; experiment: Test B flood test rice; assay type: in vivo, Oryza sativa
Method in brief: (§2)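 Plants were grown to the 2-leaf stage before treatment with test chemical, then held in a greenhouse for twelve to sixteen days. Injury was visually rated against untreated controls on a 0–10 scale, where 0 is no effect and 10 is complete control.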

[14] = test system: smallflower flatsedge; experiment: Test B flood test smallflower flatsedge; assay type: in vivo, Cyperus difformis
Method in brief: as §2

[15] = test system: duck salad; experiment: Test B flood test duck salad; assay type: in vivo, Heteranthera limosa
Method in brief: as §2

[16] = test system: bamyardgrass; experiment: Test B flood test barnyardgrass; assay type: in vivo, Echinochloa crus-galli
Method in brief: as §2

[17] = Postemergence, Rate 62 g/ha, scale 0 to 10, 0 is no effect, 10 is complete control
[18] = Postemergence, Rate 250 g/ha, scale 0 to 10, 0 no effect, 10 complete control
[19] = Preemergence, Rate 62 g/ha, scale 0 to 10 (0 no effect, 10 complete control)
[20] = Preemergence, Rate 125 g/ha, scale 0 to 10 (0 no effect, 10 complete control)
[21] = Preemergence, Rate 250 g/ha, scale of 0 to 10 where 0 is no effect and 10 is complete control
[22] = Preemergence, Rate 500 g/ha, scale 0 (no effect) to 10 (complete control)
[23] = Rate 125 g/ha, Postemergence, scale 0 to 10, 0 no effect, 10 complete control
[24] = Rate 500 g/ha, Postemergence, scale 0 to 10, 0 no effect, 10 complete control
[25] = Rate 125 g/ha, Postemergence section (flood test species), scale 0 to 10, 0 no effect, 10 complete control
[26] = Rate 500 g/ha, listed under Postemergence (flood test species), scale 0 to 10, 0 no effect, 10 complete control
[27] = flood test, listed under Postemergence, Rate 250 g/ha, scale 0 to 10, 0 no effect, 10 complete control

For `CN(C(=O)n1oc(=O)n(Cc2cccs2)c1=O)c1ccccc1` [Compound 83], the “Blackgrass plant response rating” value [1, 17] was 0, the “Blackgrass plant response rating” value [1, 18] was 0 and the “Blackgrass plant response rating” value [1, 19] was 0. For the same compound, the “Plant response rating, Blackgrass” value [1, 20] was 0, the “Plant response rating, Blackgrass” value [1, 21] was 0 and the “Blackgrass plant response rating” value [1, 22] was 0. For the same compound, the “Blackgrass plant response rating” value [1, 23] was 0, the “Blackgrass plant response rating” value [1, 24] was 0 and the “Cocklebur plant response rating” value [2, 17] was 0. For the same compound, the “Cocklebur plant response rating” value [2, 18] was 1, the “Cocklebur plant response rating” value [2, 19] was 0 and the “Plant response rating, Cocklebur” value [2, 20] was 0. The “Plant response rating, Cocklebur” value [2, 21] was 0, the “Cocklebur plant response rating” value [2, 22] was 0 and the “Cocklebur plant response rating” value [2, 23] was 0. For the same compound, the “Cocklebur plant response rating” value [2, 24] was 1, the “Giant foxtail plant response rating” value [3, 17] was 0 and the “Giant foxtail plant response rating” value [3, 18] was 0. For the same compound, the “Giant foxtail plant response rating” value [3, 19] was 0, the “Plant response rating, Giant foxtail” value [3, 20] was 0 and the “Plant response rating, Giant foxtail” value [3, 21] was 0. For the same compound, the “Giant foxtail plant response rating” value [3, 22] was 0, the “Giant foxtail plant response rating” value [3, 23] was 0 and the “Giant foxtail plant response rating” value [3, 24] was 0. The “Morningglory plant response rating” value [4, 17] was 0, the “Morningglory plant response rating” value [4, 18] was 0 and the “Morningglory plant response rating” value [4, 19] was 0. For the same compound, the “Plant response rating, Morningglory” value [4, 20] was 0, the “Plant response rating, Morningglory” value [4, 21] was 0 and the “Morningglory plant response rating” value [4, 22] was 0. The “Morningglory plant response rating” value [4, 23] was 0, the “Morningglory plant response rating” value [4, 24] was 0 and the “Redroot pigweed plant response rating” value [5, 17] was 0. The “Redroot pigweed plant response rating” value [5, 18] was 0, the “Redroot pigweed plant response rating” value [5, 19] was 0 and the “Plant response rating, Redroot pigweed” value [5, 20] was 0. For the same compound, the “Plant response rating, Redroot pigweed” value [5, 21] was 0, the “Redroot pigweed plant response rating” value [5, 22] was 0 and the “Redroot pigweed plant response rating” value [5, 23] was 0. The “Redroot pigweed plant response rating” value [5, 24] was 0, the “Rape plant response rating” value [6, 17] was 0 and the “Rape plant response rating” value [6, 18] was 0. For the same compound, the “Rape plant response rating” value [6, 19] was 0, the “Plant response rating, Rape” value [6, 20] was 0 and the “Plant response rating, Rape” value [6, 21] was 0. For the same compound, the “Rape plant response rating” value [6, 22] was 0, the “Rape plant response rating” value [6, 23] was 0 and the “Rape plant response rating” value [6, 24] was 0. For the same compound, the “Soybean plant response rating” value [7, 17] was 0, the “Soybean plant response rating” value [7, 18] was 0 and the “Soybean plant response rating” value [7, 19] was 0. The “Plant response rating, Soybean” value [7, 20] was 0, the “Plant response rating, Soybean” value [7, 21] was 0 and the “Soybean plant response rating” value [7, 22] was 0. The “Soybean plant response rating” value [7, 23] was 0, the “Soybean plant response rating” value [7, 24] was 0 and the “Sugarbeets plant response rating” value [8, 17] was 0. For the same compound, the “Sugarbeets plant response rating” value [8, 18] was 0, the “Sugarbeets plant response rating” value [8, 19] was 0 and the “Plant response rating, Sugarbeets” value [8, 20] was 0. For the same compound, the “Plant response rating, Sugarbeets” value [8, 21] was 0, the “Sugarbeets plant response rating” value [8, 22] was 0 and the “Sugarbeets plant response rating” value [8, 23] was 0. The “Sugarbeets plant response rating” value [8, 24] was 0, the “Velvetleaf plant response rating” value [9, 17] was 0 and the “Velvetleaf plant response rating” value [9, 18] was 2. The “Velvetleaf plant response rating” value [9, 19] was 0, the “Plant response rating, Velvetleaf” value [9, 20] was 0 and the “Plant response rating, Velvetleaf” value [9, 21] was 0. For the same compound, the “Velvetleaf plant response rating” value [9, 22] was 0, the “Velvetleaf plant response rating” value [9, 23] was 2 and the “Velvetleaf plant response rating” value [9, 24] was 4. For the same compound, the “Wheat plant response rating” value [10, 17] was 0, the “Wheat plant response rating” value [10, 18] was 0 and the “Wheat plant response rating” value [10, 19] was 0. The “Plant response rating, Wheat” value [10, 20] was 0, the “Plant response rating, Wheat” value [10, 21] was 0 and the “Wheat plant response rating” value [10, 22] was 0. For the same compound, the “Wheat plant response rating” value [10, 23] was 0, the “Wheat plant response rating” value [10, 24] was 0 and the “Wild oats plant response rating” value [11, 17] was 0. The “Wild oats plant response rating” value [11, 18] was 0, the “Wild oats plant response rating” value [11, 19] was 0 and the “Plant response rating, Wild oats” value [11, 20] was 0. For the same compound, the “Plant response rating, Wild oats” value [11, 21] was 0, the “Wild oats plant response rating” value [11, 22] was 0 and the “Wild oats plant response rating” value [11, 23] was 0. The “Wild oats plant response rating” value [11, 24] was 0, the “Nutsedge plant response rating” value [12, 17] was 0 and the “Nutsedge plant response rating” value [12, 18] was 0. The “Nutsedge plant response rating” value [12, 19] was 0, the “Plant response rating, Nutsedge” value [12, 20] was 0 and the “Plant response rating, Nutsedge” value [12, 21] was 0. For the same compound, the “Nutsedge plant response rating” value [12, 22] was 0, the “Nutsedge plant response rating” value [12, 23] was 0 and the “Nutsedge plant response rating” value [12, 24] was 0. The “Rice plant response rating” value [13, 17] was 0, the “Rice plant response rating” value [13, 25] was 0 and the “Rice plant response rating” value [13, 26] was 0. For the same compound, the “Rice plant response rating” value [13, 27] was 0, the “S. Flatsedge plant response rating” value [14, 17] was 0 and the “S. Flatsedge plant response rating” value [14, 25] was 0. For the same compound, the “S. Flatsedge plant response rating” value [14, 26] was 0, the “S. Flatsedge plant response rating” value [14, 27] was 0 and the “Ducksalad plant response rating” value [15, 17] was 0. For the same compound, the “Ducksalad plant response rating” value [15, 25] was 0, the “Ducksalad plant response rating” value [15, 26] was 0 and the “Ducksalad plant response rating” value [15, 27] was 0. The “Barnyardgrass plant response rating” value [16, 17] was 0, the “Barnyardgrass plant response rating” value [16, 25] was 0 and the “Barnyardgrass plant response rating” value [16, 26] was 0. For the same compound, the “Barnyardgrass plant response rating” value [16, 27] was 0.
